# Results: patent publication US10844420B2, “Method for detecting slow-VISA” (priority 2016, dated 2020)
# Key:
# Assay type in all cases: cell-based, Staphylococcus aureus
# slow-VISA [1] = test: ETEST of VCM on BHI medium added with mupirocin, slow-VISA; conditions: BHI medium added with mupirocin at a concentration at which growth was not suppressed
# Protocol: The pictures on the left show the results of a mupirocin-free medium after 96 hours, the pictures on the right show the results of a mupirocin-containing medium after 96 hours, and black arrows show the points after 48 hours.
# (§1) (2) The bacteria grown in step (a) is adjusted to OD=0.3 using an absorbance measuring instrument (wavelength of 578 nm), and it was set as 1×10^8 cells. Then, the bacteria are spread on a BHI agar medium of Eiken Chemical Co., Ltd. and a mupirocin-containing BHI agar medium, and the ETEST® strips (bioMerieux Japan Ltd.) of VCM and cefoxitin are placed thereon, followed by culture for 48 hours in accordance with the CLSI guideline. After 48 hours, tested bacteria having a MIC of cefoxitin of ≥8 μg/mL and a MIC of VCM of >6 μg/mL are suspected to be slow-VISA.
# (§2) Further, it was supposed that the resistance further increased when the stringent response relating to those mutated genes was induced.
# slow-VISA [2] = test: Growth of slow-VISA in liquid medium containing VCM with or without mupirocin
# Excerpt: In the figure, MUP indicates mupirocin.
# (§3) From FIG. 1(b), when VISA was used, an increase in the growth rate by the addition of mupirocin was not observed.
# VISA = test: Growth of VISA in liquid medium containing VCM with or without mupirocin; conditions: FIG. 1(b)
# Excerpt: as §3
# [3] = tested on: vancomycin-sensitive strain; test: ETEST of VCM on BHI medium added with mupirocin, vancomycin-sensitive strain; conditions: BHI medium added with mupirocin at a concentration at which growth was not suppressed
# Protocol: as §1, §2
# slow-VISA [4] = test: Disk diffusion method of VCM on BHI agar medium with or without mupirocin; conditions: 30 μg/mL vancomycin disks, BHI agar containing 0.032 μg/mL of mupirocin, culture for 48 hours
# Protocol: The disk diffusion method using […] vancomycin disks was separately performed on BHI agar media containing 0.032 μg/mL of mupirocin or BHI agar media in the absence of a drug. […] The values shown above the panels indicate the averages and standard deviations of the diameters of inhibitory zones.
smiles,measurement,setting,value
C/C(=C\C(=O)OCCCCCCCCC(=O)O)C[C@@H]1OC[C@H](C[C@@H]2O[C@H]2[C@@H](C)[C@H](C)O)[C@@H](O)[C@H]1O [mupirocin],degree of resistance (ETEST of VCM),slow-VISA [1],increased
same,difference in OD values,"slow-VISA [2]; 0.032 μg/mL mupirocin and 16 μg/mL VCM versus comparison media, in 24 hours",≥ 1
same,growth rate versus culture in mupirocin-free liquid medium or medium with growth-affecting mupirocin concentration and 8 μg/mL of VCM,"slow-VISA [2]; liquid medium, 0.032 μg/mL mupirocin and 16 μg/mL of VCM",larger
same,increase in the growth rate by the addition of mupirocin,VISA,not observed
same,degree of resistance (ETEST of VCM),[3],did not increase
same,colonies around inhibitory zone,slow-VISA [4],Small numerous colonies were detected
